From patent US6534073B2, “Skin care cosmetic compositions containing carboxymethylates of branched alcohols and/or ethoxylates thereof” (Unilever Home & Personal Care USA division of Conopco, Inc., priority 2000, dated 2003)
Where two headings read alike, the source gives them in different places. Marks after values point to notes of the source that are not given here.

Experiments:
human sebocytes = test: Inhibition of sebocyte lipogenesis (14C-acetate incorporation); type: cell-based; settings: for inhibition of lipogenesis (result in words): summary of Tables 2 and 3
Protocol: This example provided data on inhibition of sebocyte lipogenesis.
Secondary cultures of human sebocytes obtained from an adult […] were grown in 48-well tissue culture plates (Costar Corp.; Cambridge, Mass.) or 96-well tissue culture plates (Packard Co.; Meriden, Conn.) until confluent. Sebocyte growth medium consisted of Clonetics Keratinocyte Basal Medium (KBM) 5 supplemented with 14 μg/ml bovine pituitary extract, 0.4 μg/ml hydrocortisone, 5 μg/ml insulin, 10 ng/ml epidermal growth factor, 1.2×10^−10 M cholera toxin, 100 units/ml penicillin, and 100 μg/ml streptomycin. All cultures were incubated at 37° C. in the presence of 7.5% CO2. Medium was changed three times per week.
On the day of experimentation, the growth medium was removed and the sebocytes washed three times with sterile Dulbecco's Modified Eagle Medium (DMEM; phenol red free). Fresh DMEM was added to each sample (duplicates, triplicates, or quadruplicates depending on the experiment) with 5 μL of test agent solubilized in ethanol or sterile, distilled water either alone or in the presence of one or 10 μM of retinol. Controls consisted of addition of ethanol alone, retinol alone or phenol red, which has estrogen-like activity and was included as a positive control.
Each plate was returned to the incubator for 20 hours followed by the addition of ^14C-acetate buffer (5 mM final concentration, 56 mCi/mmol specific activity). Sebocytes were returned to the incubator for four hours after which each culture was rinsed three times with phosphate buffered saline to remove unbound label. Radioactive label remaining in the sebocytes was harvested and counted using a Beckman scintillation counter.

[1] = test system: procollagen I production by neonatal human dermal fibroblasts; test: Procollagen I production by fibroblasts (slot blot, densitometry); type: cell-based; settings: for Average OD Reading / Fold increase Over Control: Table 4; for Average OD Reading: procollagen I densitometer reading, control 0.783; for Fold increase Over Control / % Increase (+) or % decrease (−) over control: procollagen I; for % Increase (+) or % decrease (−) over control: positive control, concentration not given
Protocol: This example measured production of procollagen I by fibroblasts in response to treatment with various straight chain and branched alcohols alone.
Neonatal human dermal fibroblasts were purchased from Clonetics Corp., San Diego, Calif. All materials for cell culture were purchased from Life Technologies, N.Y. (and used in passages 5-10). Cells were seeded at a density of approximately 10,000/well in the inner 48 wells of a 96-well plate in a medium containing DMEM (Dulbecco's Modified Eagle's Medium), high-glucose supplemented with 2 mM L-glutamine, 10% fetal bovine serum, and antibiotic and antimycotic solutions. Cells were then grown to confluence for 2 days. At confluence, the medium was removed and cells were washed with serum-free DMEM, and each well dosed with 200 μl of a solution of a test compound in serum-free DMEM. Each dosing was replicated in a total of six wells. […] After 24 hours, the test compound solution or the control solution was removed and cells redosed with 100 μl of a solution of a test compound in serum-free DMEM.
Nitrocellulose membrane and 3 sheets of filter paper were soaked in TRIS buffered saline (TBS, pH 7.3.). BioRad slot blot apparatus (BioRad Labs, CA) was set up with 3 sheets filter paper on bottom, membrane on top, and tightened. […] TBS was added per well. Vacuum was used to suck TBS through membrane. The test compound solution or control was vortexed, then 100 μl was loaded per well and gravity filtered. Procollagen from the test solution was bound to the membrane at this point in the procedure. Membrane was removed from the apparatus, excess cut off, and bottom right corner notched for orientation. The membrane was placed in blocking solution (5% milk powder in Dulbecco's phosphate buffered saline) overnight at 4° C., with shaking. The membrane was then incubated for 1.5 hrs at room temperature with 1.5 mL Rat Anti-Human Procollagen Amino-Terminal Ab (Chemicon MAB1912) in TBS with 0.1% BSA (Bovine Serum Albumin) (ratio of antibody to buffer/BSA was 1:100) in a sealed bag with shaking. The membrane was then removed; washed 3 times for 5 minutes in TBS/0.1% Tween. The membrane was then incubated for 1 hour at room temperature in 2 mL of Biotinylated Anti-Rat Peroxidase-Conjugated Ab (Vector Labs) in TBS with 0.1% BSA (ratio of antibody to buffer/BSA was 1:1000) in a sealed bag with shaking. The membrane was then stained using the following solution:
12.5 mg 3-amino 9-ethyl carbazole (Sigma)
3.125 (approximately) mL DMF (N,N-dimethylformamide, from Sigma)
The membrane was stained until color developed and the reaction stopped with 2 washes for 10 minutes in tap water. The blot was scanned on a Bio-Rad GS700 Image Analysis densitometer. Percent change from control was calculated from densitometer readings as follows: [(Reading for test compound-Reading for control)/Reading for control]*100. Control has a reading of 100%. Statistical significance (p value) was calculated using student's t-test.
TGF-B is a positive control, ensuring the integrity of the assay: transforming growth factor beta is known to increase procollagen I in fibroblasts.
This example measured production of procollagen I by fibroblasts in response to treatment with various test compounds.
The experiment was conducted as described in Example 1 above. Fold increase was calculated as a ratio of densitometer reading for cells treated with a test compound over control.

[2] = Homo sapiens, Table 2, 14C-acetate label in sebocytes, read-out: % of Control
[3] = Homo sapiens, Table 3, 14C-acetate label in sebocytes, read-out: % of Control
[4] = Table 2, 14C-acetate label in sebocytes, 1 μM
[5] = Table 2, 14C-acetate label in sebocytes, 10 μM
[6] = Table 2, 14C-acetate label in sebocytes, 100 μM

## O=S1(=O)OC(c2ccc(O)cc2)(c2ccc(O)cc2)c2ccccc21 [Phenol Red, reference compound]
Human sebocytes; [2]
  activity at 28 µM: 56.5%
  activity at 280 µM: 43.3%
Human sebocytes; [3]
  activity at 28 µM: 92%
  activity at 280 µM: 61.7%

## CC1=C(/C=C/C(C)=C/C=C/C(C)=C/CO)C(C)(C)CCC1 [Retinol, reference compound]
Human sebocytes; Homo sapiens, Table 3, 14C-acetate label in sebocytes, 1 μM, read-out: % of Control
  activity at 1 µM: 91.8%
Human sebocytes; Homo sapiens, Table 3, 14C-acetate label in sebocytes, 10 μM, read-out: % of Control
  activity at 10 µM: 106%

## Iso-tridecyl carboxymethylate (sodium salt)
Human sebocytes; [4]
  % of Control: 81.5* %
Human sebocytes; [5]
  % of Control: 49.6* %
Human sebocytes; [6]
  % of Control: 1.2* %
Human sebocytes; Table 3, 14C-acetate label in sebocytes, 1 μM
  % of Control: 75.8* %
Human sebocytes; Table 3, 14C-acetate label in sebocytes, 10 μM
  % of Control: 66.0* %
Human sebocytes
  inhibition of lipogenesis (result in words): improved inhibition of lipogenesis

## TGF-B: transforming growth factor beta, positive control known to increase procollagen I in fibroblasts [reference compound]
[1]; 0.001%
  Average OD Reading: 1.348
  Fold increase Over Control: 1.72* Fold
[1]; Table 1 Experiment 1
  % Increase (+) or % decrease (−) over control: +50* %
[1]; Table 1 Experiment 2
  % Increase (+) or % decrease (−) over control: +140* %

## iso-tridecyl carboxymethylate
Human sebocytes; [4]
  % of Control: 80.0* %
Human sebocytes; [5]
  % of Control: 58.2* %
Human sebocytes; [6]
  % of Control: 1.4* %
Human sebocytes
  inhibition of lipogenesis (result in words): enhanced inhibition of lipogenesis at all tested concentrations
[1]; 0.0001%
  Average OD Reading: 0.777
  Fold increase Over Control: 0.99 Fold
[1]; 0.001%
  Average OD Reading: 1.295
  Fold increase Over Control: 1.65* Fold
[1]; summary of Tables 1 and 4
  collagen synthesis by fibroblasts (result in words): increased collagen production
